From patent US20150118229A1, “JAK1 SELECTIVE INHIBITOR AND USES THEREOF” (ABBVIE INC., priority 2013, published 2015)
pIC50: −log10 of the molar value. Entries after “also recorded” stand apart in the source; their conditions may differ. Like-named read-outs stand apart in the source and are kept apart here.

Experiments:
[1] = Clinical safety, Study M13-401
IL-7-induced pSTAT5 = experiment: Ex vivo stimulation assay IL-7 pSTAT5, orally dosed healthy human subjects; conditions: oral
P-gp = P-gp (Homo sapiens, UniProt P08183); experiment: P-gp inhibition; format: in vitro ADME
Sequence of P-gp (P08183 whole entry): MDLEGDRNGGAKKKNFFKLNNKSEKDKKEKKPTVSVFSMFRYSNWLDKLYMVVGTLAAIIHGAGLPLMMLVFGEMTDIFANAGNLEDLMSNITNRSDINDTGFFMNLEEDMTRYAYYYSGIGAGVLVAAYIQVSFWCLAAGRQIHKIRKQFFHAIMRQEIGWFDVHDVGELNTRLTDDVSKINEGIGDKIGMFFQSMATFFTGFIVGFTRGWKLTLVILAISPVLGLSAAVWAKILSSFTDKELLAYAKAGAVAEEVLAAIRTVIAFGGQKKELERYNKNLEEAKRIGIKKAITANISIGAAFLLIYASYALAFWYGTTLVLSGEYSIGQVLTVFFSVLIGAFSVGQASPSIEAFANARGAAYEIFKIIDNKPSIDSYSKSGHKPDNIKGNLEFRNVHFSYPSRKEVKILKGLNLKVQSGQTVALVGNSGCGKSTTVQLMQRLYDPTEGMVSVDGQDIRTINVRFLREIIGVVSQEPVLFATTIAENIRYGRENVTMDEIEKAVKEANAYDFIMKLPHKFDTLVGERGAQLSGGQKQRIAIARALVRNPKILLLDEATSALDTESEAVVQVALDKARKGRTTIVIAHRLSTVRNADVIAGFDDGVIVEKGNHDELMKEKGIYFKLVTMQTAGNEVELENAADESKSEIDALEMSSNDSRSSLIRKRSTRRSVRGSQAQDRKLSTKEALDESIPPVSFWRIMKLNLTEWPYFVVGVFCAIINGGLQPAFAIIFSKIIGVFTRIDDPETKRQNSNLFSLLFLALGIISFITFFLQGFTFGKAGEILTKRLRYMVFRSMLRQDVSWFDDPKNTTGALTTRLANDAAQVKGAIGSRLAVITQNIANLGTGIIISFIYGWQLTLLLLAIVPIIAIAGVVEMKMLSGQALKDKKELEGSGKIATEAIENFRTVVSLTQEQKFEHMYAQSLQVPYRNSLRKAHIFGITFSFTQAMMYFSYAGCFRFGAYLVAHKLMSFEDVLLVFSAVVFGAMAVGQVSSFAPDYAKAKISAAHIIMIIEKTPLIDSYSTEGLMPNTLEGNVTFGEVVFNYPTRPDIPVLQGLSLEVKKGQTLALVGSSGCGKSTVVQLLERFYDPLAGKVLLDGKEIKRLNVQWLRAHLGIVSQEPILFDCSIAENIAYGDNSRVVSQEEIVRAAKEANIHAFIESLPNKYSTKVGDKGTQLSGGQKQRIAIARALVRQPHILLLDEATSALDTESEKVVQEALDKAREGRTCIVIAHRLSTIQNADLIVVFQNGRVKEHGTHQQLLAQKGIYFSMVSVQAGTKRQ

[2] = Safety pharmacology in dogs (mean arterial pressure, heart rate); conditions: dog, in vivo; read-out: Cmax at which effects on mean arterial pressure and heart rate begin
Procedure: Compound 1 was tested in a battery of safety pharmacology assays.

Photostability = format: physicochemical; conditions: preclinical studies
Text: In repeated-dose oral toxicity studies in rats and dogs of 6 and 9 months duration, respectively, no evidence of skin or ocular toxicity has been observed.

IL-6 signaling = experiment: Whole blood assay IL-6 pSTAT3 CD14+; format: cell-based
[3] = system: peripheral NK, NKT cells, circulating reticulocytes; experiment: NK, NKT cell and reticulocyte counts in healthy human subjects dosed bid for 14 days; format: in vivo; conditions: 3, 6, 12, 24 mg bid 14 days
Procedure: The following procedure is provided to illustrate a method of counting TBNK cells from a blood sample, such as one collected from a human subject orally dosed with a compound of the invention. The method (including the type of instruments and reagents used) as described herein in is non-limiting, as minor variations to the procedure and equivalent instruments and reagents can be readily envisioned.
Specifically, a blood sample is collected into 3 mL lavender K2 EDTA Vacutainer at specified time points and tubes mixed. Samples are shipped to analysis facility at ambient temperature overnight, and sample analysis is preferably done on the day received.
Two BD Trucount tubes (BD Biosciences, cat #340334) are used per sample and labeled with sample number followed by A or B. Two tubes are also set up for the BD Multi-Check Control (BD Biosciences, cat #340911) that is a stabilized blood sample used as an inter-run control each time samples are analyzed. […]
For NKT cell determination, cell numbers are determined by using FlowJo and looking at the CD3^+/CD16^+/CD56^+ population. The number of cells/μL is calculated by using the following equation: (the number of events in cell population/the number of events in absolute bead count region)×(the number of beads per test*/test volume). *This value is found on BD Trucount tube label.

CYP3A4 = CYP3A4 (Homo sapiens, UniProt P08684); experiment: Metabolism by recombinant CYP3A4; format: in vitro ADME
Sequence of CYP3A4 (P08684 whole entry): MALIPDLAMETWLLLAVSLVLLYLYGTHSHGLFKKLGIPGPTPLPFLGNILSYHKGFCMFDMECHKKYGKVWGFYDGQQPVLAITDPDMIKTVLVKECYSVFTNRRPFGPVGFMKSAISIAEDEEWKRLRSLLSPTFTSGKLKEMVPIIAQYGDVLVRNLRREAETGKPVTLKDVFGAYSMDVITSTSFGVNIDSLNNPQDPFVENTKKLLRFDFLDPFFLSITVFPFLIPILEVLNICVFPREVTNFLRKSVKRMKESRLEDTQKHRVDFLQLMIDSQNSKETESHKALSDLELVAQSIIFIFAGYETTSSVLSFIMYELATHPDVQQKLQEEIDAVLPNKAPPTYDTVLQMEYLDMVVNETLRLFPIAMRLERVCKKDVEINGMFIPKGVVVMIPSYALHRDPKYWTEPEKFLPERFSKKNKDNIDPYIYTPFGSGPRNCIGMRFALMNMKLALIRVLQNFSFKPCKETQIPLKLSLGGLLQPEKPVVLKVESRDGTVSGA
Text: In vitro biotransformation of Compound 1 primarily occurred at imidazolpyrrolopyrazinyl ethyl pyrrolidine moiety.

[4] = dog, in vivo
[5] = Plasma protein binding, rat; format: in vitro ADME
OCT1 = OCT1 (Homo sapiens, UniProt O15245); experiment: Transporter inhibition, OCT1; conditions: up to 30 μM
Sequence of OCT1 (O15245 whole entry): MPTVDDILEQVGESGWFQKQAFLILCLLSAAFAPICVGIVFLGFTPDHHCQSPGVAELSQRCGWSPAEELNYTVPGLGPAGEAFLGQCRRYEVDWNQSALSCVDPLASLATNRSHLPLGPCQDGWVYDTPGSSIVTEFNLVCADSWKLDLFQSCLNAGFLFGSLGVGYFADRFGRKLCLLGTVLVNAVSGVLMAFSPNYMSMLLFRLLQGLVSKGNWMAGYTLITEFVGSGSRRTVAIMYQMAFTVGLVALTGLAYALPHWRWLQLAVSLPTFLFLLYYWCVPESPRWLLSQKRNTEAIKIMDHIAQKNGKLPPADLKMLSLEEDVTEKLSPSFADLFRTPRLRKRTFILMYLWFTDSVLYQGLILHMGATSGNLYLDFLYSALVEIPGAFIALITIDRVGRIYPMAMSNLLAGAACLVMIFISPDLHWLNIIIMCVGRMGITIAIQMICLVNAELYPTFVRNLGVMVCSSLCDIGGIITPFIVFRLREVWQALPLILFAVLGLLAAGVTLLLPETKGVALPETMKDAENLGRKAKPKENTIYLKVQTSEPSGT

BCRP = molecular target: T1, BCRP (Homo sapiens, UniProt Q9UNQ0); experiment: BCRP inhibition; format: in vitro ADME
T1 construct: expressed in transfected cells; host or cells: MDCKII-BCRP
T1 sequence (Q9UNQ0 whole entry): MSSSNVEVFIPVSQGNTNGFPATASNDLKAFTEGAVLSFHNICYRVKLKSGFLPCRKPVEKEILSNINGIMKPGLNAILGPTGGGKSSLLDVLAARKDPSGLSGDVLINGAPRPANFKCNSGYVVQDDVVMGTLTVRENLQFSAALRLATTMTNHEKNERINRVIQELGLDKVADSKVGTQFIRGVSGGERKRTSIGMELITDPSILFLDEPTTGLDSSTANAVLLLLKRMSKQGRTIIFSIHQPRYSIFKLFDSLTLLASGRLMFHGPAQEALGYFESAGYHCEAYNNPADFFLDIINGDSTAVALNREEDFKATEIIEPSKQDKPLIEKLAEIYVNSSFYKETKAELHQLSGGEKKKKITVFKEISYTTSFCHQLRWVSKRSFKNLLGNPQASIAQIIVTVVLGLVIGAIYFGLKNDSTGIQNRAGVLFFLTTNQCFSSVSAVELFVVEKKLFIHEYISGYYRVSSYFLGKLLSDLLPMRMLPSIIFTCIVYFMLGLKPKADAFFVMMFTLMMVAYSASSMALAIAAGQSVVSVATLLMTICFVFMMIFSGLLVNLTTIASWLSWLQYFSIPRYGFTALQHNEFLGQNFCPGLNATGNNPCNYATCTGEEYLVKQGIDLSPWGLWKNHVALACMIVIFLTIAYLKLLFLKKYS

OATP1B1 = OATP1B1 (Homo sapiens, UniProt Q9Y6L6); experiment: Transporter inhibition, OATP1B1
Sequence of OATP1B1 (Q9Y6L6 whole entry): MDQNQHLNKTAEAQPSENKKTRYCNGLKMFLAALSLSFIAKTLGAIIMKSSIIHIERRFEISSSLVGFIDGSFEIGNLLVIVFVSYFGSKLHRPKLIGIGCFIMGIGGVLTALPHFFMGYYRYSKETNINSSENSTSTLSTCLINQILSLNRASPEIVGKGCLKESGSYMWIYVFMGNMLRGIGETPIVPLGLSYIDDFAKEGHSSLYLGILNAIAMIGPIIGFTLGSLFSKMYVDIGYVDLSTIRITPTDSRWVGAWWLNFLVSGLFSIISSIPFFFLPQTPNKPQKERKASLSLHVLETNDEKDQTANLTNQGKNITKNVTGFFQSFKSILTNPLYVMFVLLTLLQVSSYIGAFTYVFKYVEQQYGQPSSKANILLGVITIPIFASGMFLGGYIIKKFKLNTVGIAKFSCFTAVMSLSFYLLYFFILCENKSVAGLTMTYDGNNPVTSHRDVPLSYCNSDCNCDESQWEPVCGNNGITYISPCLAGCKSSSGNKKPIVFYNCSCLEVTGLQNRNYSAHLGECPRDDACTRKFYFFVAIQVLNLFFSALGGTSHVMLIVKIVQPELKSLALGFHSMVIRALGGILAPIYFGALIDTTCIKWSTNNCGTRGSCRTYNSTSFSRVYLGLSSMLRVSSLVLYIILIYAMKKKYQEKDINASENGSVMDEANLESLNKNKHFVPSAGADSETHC

CYP2C8 = CYP2C8 (Homo sapiens, UniProt P10632); experiment: CYP inhibition in human liver microsomes, CYP2C8
Sequence of CYP2C8 (P10632 whole entry): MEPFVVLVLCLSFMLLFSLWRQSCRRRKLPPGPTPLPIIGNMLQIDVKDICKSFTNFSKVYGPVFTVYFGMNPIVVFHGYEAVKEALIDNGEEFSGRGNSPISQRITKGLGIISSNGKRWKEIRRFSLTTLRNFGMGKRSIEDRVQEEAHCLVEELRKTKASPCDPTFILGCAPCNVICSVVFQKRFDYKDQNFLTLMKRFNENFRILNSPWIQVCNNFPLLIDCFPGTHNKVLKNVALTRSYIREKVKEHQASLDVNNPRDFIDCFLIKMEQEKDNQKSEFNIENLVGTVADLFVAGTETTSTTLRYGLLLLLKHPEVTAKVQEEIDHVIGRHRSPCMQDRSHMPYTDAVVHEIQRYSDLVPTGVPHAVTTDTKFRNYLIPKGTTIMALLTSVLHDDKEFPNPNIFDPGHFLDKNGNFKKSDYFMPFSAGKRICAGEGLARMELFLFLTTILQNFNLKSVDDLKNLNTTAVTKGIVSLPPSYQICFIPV

IFN-γ = experiment: Concanavalin A-induced IFN-γ in Lewis rats; format: in vivo; conditions: oral, 30 min prior to i.v. Con A
Procedure: The test compound is formulated in an inert vehicle (for example but not limited to 0.5% hydroxypropylmethyl cellulose (Sigma, cat #H3785)/0.02% Tween 80 (Sigma, cat #4780) in water) at the desired concentration to achieve doses in the range of 0.01-100 mg/kg. Six-week-old male Lewis rats (125 g-150 g) (Charles River Laboratories) are dosed with the compound orally, at time zero (0 min). After about 30 min the rats are injected intravenously (i.v.) with 10 mg/kg Concanavalin A (Con A, AmershamBioscience, cat #17-0450-01) dissolved in PBS (Invitrogen, cat #14190). About 4 h later, the rats are cardiac bled and their plasma is analyzed for levels of IL-2 (ELISA kit: R&D Systems cat #R2000) and IFN-γ (ELISA kit: R&D Systems cat #RIF00).
The rat concanavalin A (Con A) model was selected as the acute screening model because it provides an assessment of oral bioavailability, as well as a rapid measurement of effects on Jak1-dependent mechanisms. Intravenous injection of Con A into Lewis rats results in T cell receptor ligation and activation, leading to IL-2 release and IFN-γ induction by an autocrine mechanism. IL-2 release is Jak-independent, whereas IFN-γ induction is blocked by Jak1 inhibitors.
Plasma levels of IFN-γ and IL-2 are assessed 4 hours later in a terminal bleed.

[6] = Metabolic stability in liver microsomes, monkey; format: in vitro ADME; conditions: read-out: intrinsic clearance in liver microsomes (scaled)
in vivo = conditions: both, rat, po
Procedure: The 4-week rat study was conducted at dose levels of 0, 10, 50, 100, and 200 mg/kg/day by daily oral administration (gavage). […] The cause of death was not determined for animals that died.

SMILES: CC[C@@H]1CN(C(=O)NCC(F)(F)F)C[C@@H]1c1cnc2cnc3[nH]ccc3n12 [Compound 1, (3S,4R)-3-ethyl-4-(3H-imidazo[1,2-a]pyrrolo[2,3-e]pyrazin-8-yl)-N-(2,2,2-trifluoroethyl)pyrrolidine-1-carboxamide]
- effects on blood pressure and heart rate ([1]; FIH study, through highest single dose of 48 mg): no effects
- subjects meeting predefined criteria for potentially clinically significant QT or QTcF interval ([1]; Study M13-401): No subjects
- adverse events severe, serious, or fatal ([1]; Study M13-401 Substudy 1 and 2): None
- dose-limiting toxicities ([1]; healthy volunteers, single doses 1 to 48 mg and 3, 6, 12, 24 mg twice daily 14 days): no dose-limiting toxicities
- dose causing the same inhibition of IL-7-induced pSTAT5 as 5 mg tofacitinib (IL-7-induced pSTAT5): 12 mg
- pIC50 (P-gp): 3.46
- Cmax [2]: 420 ng/mL
- photostability (Photostability): photoinstability
- pIC50 (IL-6 signaling; read-out: IL-6 (pSTAT3, CD14+)): 7.77
- pIC50 (IL-6 signaling; whole blood, read-out: IC50 IL-6 pSTAT3 CD14+): 7.77
- peripheral NK or NKT cell counts per μL [3]: only at 12 and 24 mg
- reticulocyte counts [3]: does not dose dependently reduce reticulocyte counts
- percentage of parent remaining (CYP3A4): 36.0%
- AUC lower in fed than fasted animals [4]: approximately 40%
- Cmax lower in fed than fasted animals [4]: approximately 3 fold
- Vc ([4]; iv, 1 mg/kg): 1.9 L/kg
- Vβ ([4]; iv, 1 mg/kg): 2.9 L/kg
- F ([4]; po, 5 mg/kg): 65.8 (12.1) %
- fraction unbound [5]: 0.36
- inhibition of OCT1 uptake (OCT1): No significant inhibition
- pIC50 (BCRP): 3.90
- pIC50 (OATP1B1): 4.32
- time-dependent inhibition of CYP2C8 (CYP2C8; human liver microsomes): No obvious time-dependent inhibition
- inhibition of CYP2C8 (CYP2C8; up to 30 μM): did not inhibit; also recorded: not an inhibitor
- ED50 (IFN-γ; Rattus norvegicus, read-out: ED50, inhibition of IFN-γ release): 0.4 mg/kg
- ED80, inhibition of IFN-γ release (IFN-γ): 5.8 mg/kg
- CLint scaled at 0.5 μM [6]: < 26.7 mL/min/kg
- NOAEL at 4 weeks (in vivo): 50 mg/kg/day
